Source: article PMC10035947, “Development of novel anilinoquinazoline-based carboxylic acids as non-classical carbonic anhydrase IX and XII inhibitors” (Journal of Enzyme Inhibition and Medicinal Chemistry, 2023)
Where two headings read alike, the source gives them in different places.

Columns and labels:
SR = assay: NCI SRB assay; format: cell-based, human; settings: for GI%: 10 μM; for Growth Percent: 1.00E-5 Molar
EKVX = assay: NCI SRB assay; format: cell-based, human; settings: for GI%: 10 μM; for Growth Percent: 1.00E-5 Molar; for GI50 / LC50 (concentration killing 50% of cells) / TGI: 5-dose
M14 = assay: NCI SRB assay; format: cell-based, human; settings: for GI%: M14, 10 μM; for Growth Percent: M14, 1.00E-5 Molar; for CC50: read-out: LC50 (the source's name)
IGROV1 = assay: NCI SRB assay; format: cell-based, human; settings: for GI%: IGROV1, 10 μM; for Growth Percent: IGROV1, 1.00E-5 Molar; for CC50: read-out: LC50 (the source's name)
TK-10 = assay: NCI SRB assay; format: cell-based, human; settings: for GI%: TK-10, 10 μM; for Growth Percent: TK-10, 1.00E-5 Molar; for CC50: read-out: LC50 (the source's name)
UO-31 = assay: NCI SRB assay; format: cell-based, human; settings: for GI%: UO-31, 10 μM; for Growth Percent: UO-31, 1.00E-5 Molar; for CC50: read-out: LC50 (the source's name)
MCF7 = assay: NCI SRB assay; format: cell-based, human; settings: for GI%: MCF7, 10 μM; for Growth Percent: MCF7, 1.00E-5 Molar; for CC50: read-out: LC50 (the source's name)
MDA-MB-231 = assay: NCI SRB assay; format: cell-based; settings: for Growth Percent: 1.00E-5 Molar; for CC50: read-out: LC50 (the source's name)
T-47D = assay: NCI SRB assay; format: cell-based, human; settings: for GI%: 10 μM; for Growth Percent: 1.00E-5 Molar; for GI50 / TGI / CC50: 5-dose; for CC50: read-out: LC50 (the source's name)
[1] = tested on: 59 human cancer cell lines representing nine tumour subpanels; assay: NCI SRB assay, panel and subpanel summaries; settings: for Mean GI %: 10 μM; for Mean GI % / Mean Growth Percent: all cell lines; for Mean Growth Percent: 1.00E-5 Molar; for GI50: Homo sapiens; for Selectivity index: full panel MG-MID / subpanel MG-MID
RXF 393 = assay: NCI SRB assay; format: cell-based, human; settings: for CC50: read-out: LC50 (the source's name)
[2] = Homo sapiens, IGROV-1, IGROV1, 5-dose
[3] = Homo sapiens, UO-31, UO-31, 5-dose
[4] = Homo sapiens, MCF7, MCF7, 5-dose

Cc1cccc(-c2nc(Nc3ccc(C(=O)O)cc3)c3ccccc3n2)c1 [8a, 4-((2-(m-Tolyl)quinazolin-4-yl)amino)benzoic acid]
GI% (SR): 32% | Growth Percent (SR): 67.75% | GI% (EKVX): – (Only GI% higher than 20% are shown) | Growth Percent (EKVX): 82.93% | GI% (M14): – (Only GI% higher than 20% are shown) | Growth Percent (M14): 88.98% | GI% (IGROV1): – (Only GI% higher than 20% are shown) | Growth Percent (IGROV1): 110.06% | GI% (TK-10): – (Only GI% higher than 20% are shown) | Growth Percent (TK-10): 91.50% | GI% (UO-31): 54% | Growth Percent (UO-31): 45.85% | GI% (MCF7): – (Only GI% higher than 20% are shown) | Growth Percent (MCF7): 88.63% | Growth Percent (MDA-MB-231; MDA-MB-231/ATCC): 93.31% | GI% (T-47D): 22% | Growth Percent (T-47D): 77.59% | Mean GI % [1]: 16% | Mean Growth Percent [1]: 84.51%

Cc1ccc(-c2nc(Nc3ccccc3C(=O)O)c3ccccc3n2)cc1 [6b, 2-((2-(p-Tolyl)quinazolin-4-yl)amino)benzoic acid]
GI% (SR): 81% | Growth Percent (SR): 18.56% | LC50 (50% lethal concentration) (SR; 5-dose): < 100 µM | TGI (SR; 5-dose): <100 µM | TGI (SR; 5-dose, listed as D - 835857): > 1.00E-4 Molar | GI50 (SR; Homo sapiens, 5-dose): 10.3 µM | LC50 (50% lethal concentration) (SR; Homo sapiens, 5-dose): > 100 µM | GI% (EKVX): 87% | Growth Percent (EKVX): 13.07% | GI50 (EKVX): 8.9 µM | LC50 (concentration killing 50% of cells) (EKVX): < 100 µM | TGI (EKVX): 56.2 µM | TGI (EKVX; listed as D - 835857): 5.62E-5 Molar | GI50 (EKVX; Homo sapiens): 8.89 µM | LC50 (concentration killing 50% of cells) (EKVX; Homo sapiens): > 100 µM | CC50 (M14; Homo sapiens, M14, M14, 5-dose): > 100 µM | GI50 (M14; Homo sapiens, M14, 5-dose): 15.5 µM | GI% (M14): 87% | Growth Percent (M14): 12.58% | TGI (M14; M14, 5-dose): 77.4 µM | TGI (M14; M14, 5-dose, listed as D - 835857): 7.74E-5 Molar | CC50 (M14; M14, 5-dose): < 100 µM | GI50 (IGROV1; [2]): 19.1 µM | CC50 (IGROV1; [2]): > 100 µM | GI% (IGROV1): 69% | Growth Percent (IGROV1): 31.06% | TGI (IGROV1; IGROV1, 5-dose): 87.1 µM | TGI (IGROV1; IGROV1, 5-dose, listed as D - 835857): 8.71E-5 Molar | CC50 (IGROV1; IGROV1, 5-dose): < 100 µM | CC50 (TK-10; Homo sapiens, TK-10, TK-10, 5-dose): > 100 µM | GI50 (TK-10; Homo sapiens, TK-10, 5-dose): 29.3 µM | GI% (TK-10): 41% | Growth Percent (TK-10): 58.93% | TGI (TK-10; TK-10, 5-dose): <100 µM | TGI (TK-10; TK-10, 5-dose, listed as D - 835857): > 1.00E-4 Molar | CC50 (TK-10; TK-10, 5-dose): < 100 µM | GI50 (UO-31; [3]): 7.33 µM | CC50 (UO-31; [3]): > 100 µM | GI% (UO-31): 87% | Growth Percent (UO-31): 12.56% | GI50 (UO-31; UO-31, 5-dose): 7.3 µM | TGI (UO-31; UO-31, 5-dose): 77.9 µM | TGI (UO-31; UO-31, 5-dose, listed as D - 835857): 7.79E-5 Molar | CC50 (UO-31; UO-31, 5-dose): < 100 µM | GI50 (MCF7; [4]): 9.41 µM | CC50 (MCF7; [4]): > 100 µM | GI% (MCF7): 92% | Growth Percent (MCF7): 7.70% | GI50 (MCF7; MCF7, 5-dose): 9.4 µM | TGI (MCF7; MCF7, 5-dose): 89.9 µM | TGI (MCF7; MCF7, 5-dose, listed as D - 835857): 8.99E-5 Molar | CC50 (MCF7; MCF7, 5-dose): < 100 µM | GI50 (MDA-MB-231; Homo sapiens, MDA-MB-231): 17.2 µM | CC50 (MDA-MB-231; Homo sapiens, MDA-MB-231, MDA-MB-231, 5-dose): < 100 µM | CC50 (MDA-MB-231; Homo sapiens, MDA-MB-231, MDA-MB-231/ATCC, 5-dose): > 100 µM | GI% (MDA-MB-231; MDA-MB-231, 10 μM): 65% | TGI (MDA-MB-231; MDA-MB-231, 5-dose): 59.7 µM | Growth Percent (MDA-MB-231; MDA-MB-231/ATCC): 35.40% | TGI (MDA-MB-231; MDA-MB-231/ATCC, 5-dose): 5.97E-5 Molar | GI% (T-47D): 89% | Growth Percent (T-47D): 10.72% | GI50 (T-47D): 6.3 µM | TGI (T-47D): 70.0 µM | TGI (T-47D; listed as D - 835857): 7.00E-5 Molar | CC50 (T-47D): < 100 µM | GI50 (T-47D; Homo sapiens, T47D): 6.29 µM | CC50 (T-47D; Homo sapiens, T47D): > 100 µM | CC50 (RXF 393; Homo sapiens, RXF 393, RXF 393, 5-dose): > 100 µM | GI50 (RXF 393; Homo sapiens, RXF 393, 5-dose): 13.1 µM | TGI (RXF 393; RXF 393, 5-dose): 65.9 µM | TGI (RXF 393; RXF 393, 5-dose, listed as D - 835857): 6.59E-5 Molar | CC50 (RXF 393; RXF 393, 5-dose): < 100 µM | Mean GI % [1]: 84% | Mean Growth Percent [1]: 15.81% | GI50 ([1]; read-out: Full panel MG-MID (GI50), full panel): 12 µM | GI50 ([1]; read-out: MG-MID (median GI50), Breast cancer subpanel): 11 µM | GI50 ([1]; read-out: MG-MID (median GI50), CNS cancer subpanel): 8.04 µM | GI50 ([1]; read-out: MG-MID (median GI50), Colon cancer subpanel): 13.7 µM | GI50 ([1]; read-out: MG-MID (median GI50), Leukaemia subpanel): 8.68 µM | GI50 ([1]; read-out: MG-MID (median GI50), Melanoma subpanel): 11.7 µM | GI50 ([1]; read-out: MG-MID (median GI50), Non-small cell lung cancer subpanel): 9.24 µM | GI50 ([1]; read-out: MG-MID (median GI50), Ovarian cancer subpanel): 15.7 µM | GI50 ([1]; read-out: MG-MID (median GI50), Prostate cancer subpanel): 15.2 µM | GI50 ([1]; read-out: MG-MID (median GI50), Renal cancer subpanel): 14.7 µM | Selectivity index ([1]; Breast cancer): 1.09 | Selectivity index ([1]; CNS cancer): 1.49 | Selectivity index ([1]; Colon cancer): 0.87 | Selectivity index ([1]; Leukaemia): 1.38 | Selectivity index ([1]; Melanoma): 1.02 | Selectivity index ([1]; Non-small cell lung cancer): 1.29 | Selectivity index ([1]; Ovarian cancer): 0.76 | Selectivity index ([1]; Prostate cancer): 0.78 | Selectivity index ([1]; Renal cancer): 0.81

Cc1ccc(-c2nc(Nc3cccc(C(=O)O)c3)c3ccccc3n2)cc1 [7b, 3-((2-(p-Tolyl)quinazolin-4-yl)amino)benzoic acid]
GI% (SR): 41% | Growth Percent (SR): 58.68% | GI% (EKVX): 41% | Growth Percent (EKVX): 58.70% | GI% (M14): – (Only GI% higher than 20% are shown) | Growth Percent (M14): 83.59% | GI% (IGROV1): – (Only GI% higher than 20% are shown) | Growth Percent (IGROV1): 107.30% | GI% (TK-10): – (Only GI% higher than 20% are shown) | Growth Percent (TK-10): 115.15% | GI% (UO-31): 51% | Growth Percent (UO-31): 48.97% | GI% (MCF7): – (Only GI% higher than 20% are shown) | Growth Percent (MCF7): 85.28% | Growth Percent (MDA-MB-231; MDA-MB-231/ATCC): 95.55% | GI% (T-47D): – (Only GI% higher than 20% are shown) | Growth Percent (T-47D): 83.81% | Mean GI % [1]: 14% | Mean Growth Percent [1]: 86.13%
